Test results taken from patent US4772607A, “Dialkenyl derivatives of xanthine, pharmaceutical compositions and methods of use therefor” (Warner-Lambert Company, priority 1986, dated 1988).
“And” between values parts separate entries of the source, which are not always exact repeats. Equal values may be shown once. Where a name gives a salt, the structure may show the parent alone.

What was measured:
[1] = target: T1, A1 adenosine receptor (Rattus norvegicus, UniProt P25099); test: Adenosine Receptor Binding--A1 Receptor Affinity (RBA1), [3H]-CHA, rat whole brain membranes; set-up: species or system rat (male Long-Evans); settings: [3H]-CHA 1.0 nM, 25° C., one hour, pH 7.7; read-out: RBA-1 IC50 (adenosine A1 receptor affinity)
T1 construct: Whole brain minus cerebellum and brainstem from male Long-Evans rats (150-200 g) is homogenized; from tissue; host or cells: rat whole brain minus cerebellum and brainstem, membranes
T1 sequence (P25099 1-326): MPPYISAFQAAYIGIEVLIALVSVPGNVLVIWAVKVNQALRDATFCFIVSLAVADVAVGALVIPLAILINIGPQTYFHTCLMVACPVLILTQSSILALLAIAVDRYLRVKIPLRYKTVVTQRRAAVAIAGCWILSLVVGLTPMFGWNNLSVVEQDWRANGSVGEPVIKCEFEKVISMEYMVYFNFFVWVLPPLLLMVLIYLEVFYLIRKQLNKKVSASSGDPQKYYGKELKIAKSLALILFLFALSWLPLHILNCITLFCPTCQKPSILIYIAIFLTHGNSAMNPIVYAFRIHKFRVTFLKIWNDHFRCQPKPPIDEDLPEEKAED
Experimental: Adenosine Receptor Binding--A1 Receptor Affinity (RBA1)
Whole brain minus cerebellum and brainstem from male Long-Evans rats (150-200 g) is homogenized in 30 volumes of ice-cold 0.05M Tris-HCl buffer pH 7.7 using a Brinkman Polytron PT-10, (setting number 6 for 20 seconds) and centrifuged for ten minutes at 20,000×g (Sorvall RC-2), 4° C. The supernatant is discarded, and the pellet is resuspended and centrifuged as before. The pellet is resuspended in 20 ml Tris-HCl buffer containing two International Units/ml of adenosine deaminase (Sigma type III from calf intestinal mucosa), incubated at 37° C. for 30 minutes, then subsequently at 0° C. for ten minutes. The homogenate is again centrifuged, and the final pellet is resuspended in ice-cold 0.05M Tris-HCl buffer pH 7.7 to a concentration of 20 mg/ml original wet tissue weight and used immediately.
Tissue homogenate (10 mg/ml) is incubated in 0.05M Tris-HCl buffer pH 7.7 containing 1.0 nM [^3 H]-N6-cyclohexyladenosine ([^3 H]-CHA) with or without test agents in triplicate for one hour at 25° C. Incubation volume was 2 ml. Unbound [^3 H]-CHA is separated by rapid filtration under reduced pressure through Whatman glass fiber (GF/B) filters. The filters are rinsed three times with 5 ml of ice-cold 0.05M Tris-HCl buffer pH 7.7. The radio-labeled ligand retained on the filter is measured by liquid scintillation spectrophotometry after shaking the filters for one hour or longer on a mechanical shaker in 10 ml of Beckman Ready-Solv HP scintillation cocktail.
The Scatchard plot is calculated by linear regression of the line obtained by plotting the amount of radioligand bound (pmoles/gram of tissue) versus [formula] Since the amount of radioligand bound is a small fraction of the total amount added, free radioligand is defined as the concentration of (nM) of radioligand added to the incubation mixture. The Hill coefficient is calculated by linear regression of the line obtained by plotting the log of the bound radioligand vs the log of the [formula] The maximal number of binding sites (Bmax) is calculated from the Scatchard plot.

[2] = test system: A1 and A2 adenosine receptor; settings: disclosed by Hamilton et al, J. Med. Chem. (1985) 28: 1071; cited from earlier work
[3] = target: T2, A2 adenosine receptor (Rattus norvegicus, UniProt P30543); test: Adenosine Receptor Binding--A2 Receptor Affinity (RBA2), [3H]NECA, rat striatal membranes; set-up: species or system rat (Sprague-Dawley); settings: [3H]NECA 4 nM, 50 nM N6-cyclopentyladenosine, 25° C., 60 minutes; read-out: RBA-2 IC50 (adenosine A2 receptor affinity)
T2 construct: Brains are thawed and then kept on ice while the striata are dissected out; tissue Pel-Freez (Rogers, Ark.); host or cells: rat striatum, membranes
Experimental: Adenosine Receptor Binding--A2 Receptor Affinity (RBA2)
The membrane suspension (5 mg/0.79 ml) contained sufficient MgCl2 and adenosine deaminase to give 10 mM and 0.1 units/ml, respectively, final concentration in the incubation.
[formula] where Y is cpm bound
T is cpm total binding without drug
S is cpm specific binding without drug
D is the concentration of drug and
K is the IC50 of the drug

[4] = test system: locomotor suppressant effects of A2 selective agonist CV-1808; test: CNS activity: antagonism of locomotor suppressant effect of A2 agonist CV-1808 in mice; type: in vivo, mouse (male Swiss-Webster); settings: for Locomotor activity, % suppression (B, A2 agonist alone): CV-1808 8 mg/kg IP alone
Experimental: (§1) The procedure employs naive animals obviating the need for extensive training and precluding possible cumulative drug effects.
(§2) Suspensions are ultrasonicated for 3 minutes.

[5] = test system: locomotor suppressant effects of A1 selective adenosine agonist CPA; test: CNS activity: antagonism of locomotor suppressant effect of A1 agonist CPA in mice; type: in vivo, mouse (male Swiss-Webster)
Experimental: as §1, §2

[6] = CNS activity: locomotor activity of antagonist alone in mice (reference control); type: in vivo, mouse (male Swiss-Webster); settings: antagonist 10 mg/kg IP alone; CV-1808 experiment

T2 sequence (P30543 whole entry): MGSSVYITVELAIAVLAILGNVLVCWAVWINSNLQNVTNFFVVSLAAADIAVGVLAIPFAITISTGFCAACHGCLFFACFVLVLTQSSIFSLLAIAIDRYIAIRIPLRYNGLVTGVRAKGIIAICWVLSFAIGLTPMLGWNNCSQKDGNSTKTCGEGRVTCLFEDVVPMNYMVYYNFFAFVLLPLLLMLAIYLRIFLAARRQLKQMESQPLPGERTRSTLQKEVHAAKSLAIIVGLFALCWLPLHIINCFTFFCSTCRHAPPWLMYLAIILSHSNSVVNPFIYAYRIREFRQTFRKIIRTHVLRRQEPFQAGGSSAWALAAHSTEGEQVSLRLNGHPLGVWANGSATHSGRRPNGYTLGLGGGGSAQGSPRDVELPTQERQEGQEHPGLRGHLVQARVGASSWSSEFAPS

## C=CCn1c(=O)c2[nH]c(-c3ccc(S(=O)(=O)NCCCN(C)C)cc3)nc2n(CC=C)c1=O [Example 3, N-[3-(dimethylamino)propyl]-4-(2,3,6,7-tetrahydro-2,6-dioxo-1,3-di-2-propenyl-1H-purine-8-yl)benzenesulfonamide monohydrochloride]
[1]
  IC50: 260 nM

## C=CCn1c(=O)c2nc(-c3ccc(Cl)cc3N)[nH]c2n(CC=C)c1=O [Example 1, 8-(2-Amino-4-chlorophenyl)-3,9-dihydro-1,3-bis(2-propenyl)-1H-purine-2,6-dione]
[1]
  IC50: 130 nM
[2]
  A1 and A2 adenosine receptor binding activity (in words): having A1 and A2 adenosine receptor binding activity

## 8-(4-sulfonylphenyl)-3,9-dihydro-1,3-bis(2-propenyl)-1H-purine-2,6-dione
[2]
  A1 and A2 adenosine receptor binding activity (in words): having A1 and A2 adenosine receptor binding activity

## C=CCn1c(=O)c2[nH]c(C3CCCC3)nc2n(CC=C)c1=O [Example 4, 8-Cyclopentyl-3,7-dihydro-1,3-bis(2-propenyl)-1H-purine-2,6-dione]
[3]
  IC50: 3500 nM
[4]; antagonist 10 mg/kg, CV-1808 8 mg/kg, IP
  % Reversal (B - C) ÷ B × 100, against CV-1808 (A2): 8%
[4]; antagonist + CV-1808 8 mg/kg, IP, antagonist 10 mg/kg
  Locomotor activity, % suppression (C, agonist + antagonist): 57%
[4]; paired t-test of B and C
  Reversal Rating A2 (against CV-1808): N (if the data are insignificant (p>0.05) then the dose effect is given a rating of "N")
[1]
  IC50: 9 nM
[5]; antagonist 10 mg/kg + CPA 2 mg/kg, IP
  Locomotor activity, % suppression (C, agonist + antagonist): 16%
[5]; antagonist 10 mg/kg, CPA 2 mg/kg, IP
  % Reversal (B - C) ÷ B × 100, against CPA (A1): 82%
[5]; paired t-test of B and C
  Reversal Rating A1 (against CPA): A (if the values are significantly different (p<0.05) from each other then the dose effect is given a reversal rating of "A")
[6]
  Locomotor activity, % suppression (A, antagonist alone): 18%

## C=CCn1c(=O)c2[nH]c(-c3ccc(S(=O)(=O)NCCCN(C)C)cc3)nc2n(CC=C)c1=O [N-[3-(dimethylamino)propyl]-4-(2,3,6,7-tetrahydro-2,6-dioxo-1,3-2-propenyl-1H-purine-8-yl)benzensulfonamide]
[2]
  A1 and A2 adenosine receptor binding activity (in words): having A1 and A2 adenosine receptor binding activity

## OC[C@H]1O[C@@H](n2cnc3c(NC4CCCC4)ncnc32)[C@H](O)[C@@H]1O [CPA, N^6 -cyclopentyladenosine, reference compound]
[5]; CPA 2 mg/kg IP alone
  Locomotor activity, % suppression (B, A1 agonist alone): 90% and 94%

## C=CCn1c(=O)c2nc(-c3ccc(S(=O)(=O)O)cc3)[nH]c2n(CC=C)c1=O [Example 2, 4-(2,3,6,7-Tetrahydro-2,6-dioxo-1,3-di-2-propenyl-1H-purine-8-yl)benzenesulfonic acid]
[1]
  IC50: 6960 nM

## Nc1nc(Nc2ccccc2)nc2c1ncn2[C@@H]1O[C@H](CO)[C@@H](O)[C@H]1O [CV-1808, 2-anilinoadenosine, reference compound]
[4]; 8 mg/kg
  Locomotor activity, % suppression (B, A2 agonist alone): 83%
[4]; listed as CV-1810
  Locomotor activity, % suppression (B, A2 agonist alone): 62%

## C=CCn1c(=O)c2nc(C)[nH]c2n(CC=C)c1=O [8-methyl-3,9-dihydro-1,3-bis(2-propenyl)-1H-purine-2,6-dione]
[2]
  A1 and A2 adenosine receptor binding activity (in words): having A1 and A2 adenosine receptor binding activity
